Values joined by “and” are separate entries in the source; they are usually repeats but may differ in a detail not shown here. Equal entries are not always repeated. Inconclusive results and toxic doses are left out. How the source made its calls: active means survival T/C of 150% or more; inactive means T/C below 125% in these data.
System: P388 leukemia ip, CD2F1 mice, survival T/C
Test: NCI In Vivo Anticancer Drug Screen. Data for tumor model P388 Leukemia (intraperitoneal) in CD2F1 (CDF1) mice
Conditions: endpoint: median survival time, higher = longer survival
Outline: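 Mice carrying the transplanted tumor received test compound or vehicle. Survival was recorded in each group, and the value is the treated-group measurement divided by that of the vehicle-treated control group.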

[1] = dose: 12.5 mg/kg/injection, schedule: Q01DX009 (ip), vehicle: saline with Tween-80
[2] = dose: 25.0 mg/kg/injection, schedule: Q01DX009 (ip), vehicle: saline with Tween-80
[3] = dose: 50.0 mg/kg/injection, schedule: Q01DX009 (ip), vehicle: saline with Tween-80
[4] = dose: 100.0 mg/kg/injection, schedule: Q01DX009 (ip), vehicle: saline with Tween-80
[5] = dose: 50.0 mg/kg/injection, schedule: Q01DX009 (ip), vehicle: saline
[6] = dose: 100.0 mg/kg/injection, schedule: Q01DX009 (ip), vehicle: saline
[7] = dose: 6.25 mg/kg/injection, schedule: Q01DX009 (ip), vehicle: saline with Tween-80
[8] = dose: 200.0 mg/kg/injection, schedule: Q01DX009 (ip), vehicle: saline with Tween-80
[9] = dose: 100.0 mg/kg/injection, schedule: Q01DX001 (ip), vehicle: Klucel (hydroxypropylcellulose) (HPC)
[10] = dose: 200.0 mg/kg/injection, schedule: Q01DX001 (ip), vehicle: Klucel (hydroxypropylcellulose) (HPC)
[11] = dose: 400.0 mg/kg/injection, schedule: Q01DX001 (ip), vehicle: Klucel (hydroxypropylcellulose) (HPC)
[12] = dose: 100.0 mg/kg/injection, schedule: Q01DX001 (ip), vehicle: saline with Tween-80

Measured: T/C

CC1(C)CC(=O)C(C(c2cccc(O)c2O)C2C(=O)CC(C)(C)CC2=O)C(=O)C1
inactive: [1] 100 % of control and 96 % of control | [2] 92 % of control | [3] 93 % of control and 96 % of control | [4] 92 % of control and 94 % of control

COS(C)=O (stereo unspecified)
inactive: [5] 99 % of control | [6] 99 % of control

COC1=NC=CC=CC1
inactive: [7] 103 % of control | [1] 111 % of control | [2] 107 % of control

NC(CS)C(=O)O.[Cl-].[Cl-].[Cl-].[Cl-].[Pt+2] (stereo unspecified)
inactive: dose: 12.5 mg/kg/injection, schedule: Q01DX009 (ip), vehicle: saline 104 % of control | dose: 25.0 mg/kg/injection, schedule: Q01DX009 (ip), vehicle: saline 95 % of control | [5] 95 % of control | [6] 99 % of control | dose: 200.0 mg/kg/injection, schedule: Q01DX009 (ip), vehicle: saline 95 % of control

CN(C)c1ccc(C2(c3ccccc3)c3ccccc3C(=O)N2N)cc1 (stereo unspecified)
inactive: dose: 100.0 mg/kg/injection, schedule: Q04DX002 (ip), vehicle: saline with Tween-80 89 % of control | dose: 200.0 mg/kg/injection, schedule: Q04DX002 (ip), vehicle: saline with Tween-80 89 % of control | dose: 400.0 mg/kg/injection, schedule: Q04DX002 (ip), vehicle: saline with Tween-80 90 % of control

CN[C@H]1CC[C@]23C[C@]24CC[C@]2(C)[C@@H]([C@H](C)N(C)C)CC[C@@]2(C)[C@@H]4CC[C@H]3C1(C)C
inactive: dose: 3.12 mg/kg/injection, schedule: Q01DX009 (ip), vehicle: saline with Tween-80 112 % of control | [7] 100 % of control | [1] 102 % of control | [2] 102 % of control | [3] 118 % of control

Cc1cc(Cl)ccc1S(=O)(=O)F
inactive: [3] 113 % of control | [4] 113 % of control | [8] 98 % of control

N#C/C(=C1C=C(Br)/C(=N\O)C=C\1Cl)c1cccc2ccccc12
inactive: [3] 103 % of control | [4] 102 % of control | [8] 102 % of control | dose: 400.0 mg/kg/injection, schedule: Q01DX009 (ip), vehicle: saline with Tween-80 115 % of control

NCC(=O)Nc1ccc(O)cc1
inactive: dose: 100.0 mg/kg/injection, schedule: Q01DX009 (ip), vehicle: saline sonified 104 % of control | dose: 100.0 mg/kg/injection, schedule: Q04DX003 (ip), vehicle: saline sonified 110 % of control | dose: 200.0 mg/kg/injection, schedule: Q04DX003 (ip), vehicle: saline sonified 110 % of control | dose: 264.0 mg/kg/injection, schedule: Q04DX003 (ip), vehicle: saline with Tween-80 109 % of control | dose: 400.0 mg/kg/injection, schedule: Q04DX003 (ip), vehicle: saline with Tween-80 109 % of control | dose: 600.0 mg/kg/injection, schedule: Q04DX003 (ip), vehicle: saline with Tween-80 109 % of control

Cc1ccc(S(=O)(=O)N/N=c2\ccc3ccccc3n2C)cc1
inactive: dose: 100.0 mg/kg/injection, schedule: Q04DX002 (ip), vehicle: saline 100 % of control | dose: 200.0 mg/kg/injection, schedule: Q04DX002 (ip), vehicle: saline 99 % of control | dose: 400.0 mg/kg/injection, schedule: Q04DX002 (ip), vehicle: saline 101 % of control

COc1ccc2c(C(=O)O)cc3c4ccccc4ncc3c2c1
inactive: dose: 12.5 mg/kg/injection, schedule: Q01DX009 (ip), vehicle: distilled water + Tween-80 100 % of control | dose: 25.0 mg/kg/injection, schedule: Q01DX009 (ip), vehicle: distilled water + Tween-80 95 % of control | dose: 50.0 mg/kg/injection, schedule: Q01DX009 (ip), vehicle: distilled water + Tween-80 98 % of control | dose: 100.0 mg/kg/injection, schedule: Q01DX009 (ip), vehicle: distilled water + Tween-80 96 % of control | dose: 200.0 mg/kg/injection, schedule: Q01DX009 (ip), vehicle: distilled water + Tween-80 99 % of control

CCOc1ccc(N=NC2C(=O)N(c3cccc(Cl)c3Cl)C(=S)N(c3ccccc3)C2O)cc1 (stereo unspecified)
inactive: [9] 99 % of control | [10] 100 % of control | [11] 97 % of control

NC(=O)c1nnn(-c2ccccc2)n1
inactive: dose: 100.0 mg/kg/injection, schedule: Q04DX003 (ip), vehicle: Klucel (hydroxypropylcellulose) (HPC) 105 % of control | dose: 200.0 mg/kg/injection, schedule: Q04DX003 (ip), vehicle: Klucel (hydroxypropylcellulose) (HPC) 99 % of control | dose: 400.0 mg/kg/injection, schedule: Q04DX003 (ip), vehicle: Klucel (hydroxypropylcellulose) (HPC) 89 % of control

COP(=O)(OC)C1(Nc2ccccc2)C2CC3CC(C2)CC1C3 (stereo unspecified)
inactive: [12] 105 % of control | dose: 200.0 mg/kg/injection, schedule: Q01DX001 (ip), vehicle: saline with Tween-80 110 % of control | dose: 400.0 mg/kg/injection, schedule: Q01DX001 (ip), vehicle: saline with Tween-80 102 % of control

CC1=NNC(=S)NCCCN2CCN(CCCNC(=S)NN=C(C)C=NNC(=S)NCCCN3CCN(CCCNC(=S)NN=C1)CC3)CC2
inactive: dose: 50.0 mg/kg/injection, schedule: Q01DX005 (ip), vehicle: suspension in saline 106 % of control | dose: 100.0 mg/kg/injection, schedule: Q01DX005 (ip), vehicle: suspension in saline 113 % of control | dose: 200.0 mg/kg/injection, schedule: Q01DX005 (ip), vehicle: suspension in saline 106 % of control

NC1CN(C(COCc2ccccc2)c2ccc(OCc3ccccc3)cc2)C1=O (stereo unspecified)
inactive: dose: 50.0 mg/kg/injection, schedule: Q01DX005 (ip), vehicle: saline with Tween-80 100 % of control | dose: 100.0 mg/kg/injection, schedule: Q01DX005 (ip), vehicle: saline with Tween-80 103 % of control | dose: 200.0 mg/kg/injection, schedule: Q01DX005 (ip), vehicle: saline with Tween-80 97 % of control

O=C(N[C@@H](CO)[C@H]1CC(Br)=NO1)C(Cl)(Cl)Cl
inactive: dose: 12.5 mg/kg/injection, schedule: Q01DX005 (ip), vehicle: distilled water + Tween-80 100 % of control | dose: 25.0 mg/kg/injection, schedule: Q01DX005 (ip), vehicle: distilled water + Tween-80 102 % of control | dose: 50.0 mg/kg/injection, schedule: Q01DX005 (ip), vehicle: distilled water + Tween-80 105 % of control | dose: 100.0 mg/kg/injection, schedule: Q01DX005 (ip), vehicle: distilled water + Tween-80 107 % of control

ClCCN(CCCl)c1ccc(N=Nc2ccc(-c3ccccc3)cc2)cc1
inactive: dose: 3.0 mg/kg/injection, schedule: Q01DX001 (ip), vehicle: Klucel (hydroxypropylcellulose) (HPC) 95 % of control | dose: 6.0 mg/kg/injection, schedule: Q01DX001 (ip), vehicle: Klucel (hydroxypropylcellulose) (HPC) 103 % of control | dose: 12.0 mg/kg/injection, schedule: Q01DX001 (ip), vehicle: Klucel (hydroxypropylcellulose) (HPC) 93 % of control

CC1NC(CCCCCCCCCCC2=CC(CCCCCCCCCCC3CCC(O)C(C)N3)C3CCCN3C2)CCC1O (stereo unspecified)
inactive: dose: 0.93 mg/kg/injection, schedule: Q01DX005 (ip), vehicle: water 95 % of control | dose: 1.87 mg/kg/injection, schedule: Q01DX005 (ip), vehicle: water 96 % of control | dose: 3.75 mg/kg/injection, schedule: Q01DX005 (ip), vehicle: water 91 % of control and 92 % of control and 94 % of control | dose: 7.5 mg/kg/injection, schedule: Q01DX005 (ip), vehicle: water 93 % of control

FC(F)(F)C1(C(F)(F)F)O[Te]2(OC1(C(F)(F)F)C(F)(F)F)OC(C(F)(F)F)(C(F)(F)F)C(C(F)(F)F)(C(F)(F)F)O2
inactive: dose: 6.25 mg/kg/injection, schedule: Q01DX005 (ip), vehicle: Klucel (hydroxypropylcellulose) (HPC) 100 % of control | dose: 12.5 mg/kg/injection, schedule: Q01DX005 (ip), vehicle: Klucel (hydroxypropylcellulose) (HPC) 112 % of control

CC1=C(C)C(=O)C(C(C)(C)CC(=O)n2cc(F)c(=O)[nH]c2=O)=C(C)C1=O
inactive: [12] 111 % of control

Nc1nc2n(O)cc(-c3ccccc3)nc-2c(=O)n1
inactive: dose: 10.0 mg/kg/injection, schedule: Q01DX009 (ip), vehicle: saline with Tween-80 89 % of control | dose: 20.0 mg/kg/injection, schedule: Q01DX009 (ip), vehicle: saline with Tween-80 101 % of control | dose: 40.0 mg/kg/injection, schedule: Q01DX009 (ip), vehicle: saline with Tween-80 92 % of control

CC(C#N)(S(C)(=O)=O)S(=O)(=O)c1ccccc1 (stereo unspecified)
inactive: dose: 1.56 mg/kg/injection, schedule: Q01DX001 (ip), vehicle: saline with Tween-80 96 % of control | dose: 3.12 mg/kg/injection, schedule: Q01DX001 (ip), vehicle: saline with Tween-80 99 % of control | dose: 6.25 mg/kg/injection, schedule: Q01DX001 (ip), vehicle: saline with Tween-80 102 % of control

NC(=S)N/N=C/c1c(Cl)nc2sccn12
inactive: [9] 92 % of control | [10] 97 % of control | [11] 97 % of control
